# In US20160222056A1, “SUBSTITUTED PHENYLALANINE DERIVATIVES” (BAYER PHARMA AKTIENGESELLSCHAFT, priority 2013, published 2016):
# Structures can show the parent of a compound that is named as a salt. Where two headings read alike, the source gives them in different places.
# Key:
# human factor XIa = biological target: T1, human factor XIa (Homo sapiens, UniProt P03951); experiment: Measurement of FXIa inhibition (fluorogenic peptide substrate); assay type: biochemical
# T1 construct: purchased Kordia
# T1 sequence (P03951 388-625 limits assumed): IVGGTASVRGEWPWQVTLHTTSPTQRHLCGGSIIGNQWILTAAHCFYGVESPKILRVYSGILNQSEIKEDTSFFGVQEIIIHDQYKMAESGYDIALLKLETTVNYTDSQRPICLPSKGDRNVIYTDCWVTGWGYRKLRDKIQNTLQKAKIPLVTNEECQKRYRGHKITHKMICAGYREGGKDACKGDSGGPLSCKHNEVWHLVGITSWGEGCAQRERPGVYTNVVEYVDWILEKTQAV
# T1 sequence (P03951 19-387 partner limits assumed): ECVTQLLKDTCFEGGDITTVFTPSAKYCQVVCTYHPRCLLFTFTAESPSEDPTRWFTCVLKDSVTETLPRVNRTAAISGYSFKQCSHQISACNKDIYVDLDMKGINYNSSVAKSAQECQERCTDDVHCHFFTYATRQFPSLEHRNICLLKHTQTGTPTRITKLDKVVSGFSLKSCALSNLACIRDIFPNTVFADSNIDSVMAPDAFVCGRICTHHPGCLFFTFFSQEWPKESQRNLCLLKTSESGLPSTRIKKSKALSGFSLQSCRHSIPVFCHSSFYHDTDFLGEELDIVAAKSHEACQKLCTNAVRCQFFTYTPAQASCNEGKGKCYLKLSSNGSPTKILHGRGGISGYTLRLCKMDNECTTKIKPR
# Procedure: To determine the factor XIa inhibition of the substances according to the invention, a biochemical test system is used which utilizes the reaction of a peptidic factor XIa substrate to determine the enzymatic activity of human factor XIa. Here, factor XIa cleaves from the peptic factor XIa substrate the C-terminal aminomethylcoumarin (AMC), the fluorescence of which is measured. The determinations are carried out in microtitre plates.
# Test substances are dissolved in dimethyl sulphoxide and serially diluted in dimethyl sulphoxide (3000 μM to 0.0078 μM; resulting final concentrations in the test: 50 μM to 0.00013 μM). In each case 1 μl of the diluted substance solutions are placed into the wells of white microtitre plates from Greiner (384 wells). Subsequently, the following are added successively: 20 μl of assay buffer (50 mmol/1 Tris buffer pH 7.4; 100 mmol/1 sodium chloride; 5 mmol/1 calcium chloride; 0.1% bovine serum albumin) and 20 μl of factor XIa from Kordia (0.45 nM in assay buffer). After 15 min of incubation, the enzyme reaction is started by addition of 20 μl of the factor XIa substrate Boc-Glu(OBzl)-Ala-Arg-AMC dissolved in assay buffer (10 μM in assay buffer) from Bachem, the mixture is incubated at room temperature (22° C.) for 30 min and fluorescence is then measured (excitation: 360 nm, emission: 460 nm). The measured emissions of the test batches with test substance are compared to those of control batches without test substance (only dimethyl sulphoxide instead of test substance in dimethyl sulphoxide), and the IC50 values are calculated from the concentration/activity relationships.
# human and animal plasma = experiment: Anticoagulatory activity: activated partial thromboplastin time (aPTT) in plasma; assay type: biochemical; details: in vitro in plasma, C.K. Prest kit, 37° C. for 3 minutes; plasma species of Table B not stated
# Procedure: The anticoagulatory activity of the test substances is determined in vitro in human and animal plasma (for example mouse, rat, rabbit, pig and dog plasma). To this end, blood is drawn off in a mixing ratio of sodium citrate/blood of 1:9 using a 0.11 molar sodium citrate solution as receiver. Immediately after the blood has been drawn off, it is mixed thoroughly and centrifuged at about 4000 g for 15 minutes. The supernatant is pipetted off.
# The activated partial thromboplastin time (aPTT) is determined in the presence of varying concentrations of test substance or the corresponding solvent using a commercial test kit (C.K. Prest from Diagnostica Stago). The test compounds are incubated with the plasma and the PTT reagent (cephalin, kaolin) at 37° C. for 3 minutes. Coagulation is then started by addition of 25 mM aqueous calcium chloride, and the time when coagulation occurs is determined. The concentration of test substance which brings about a 1.5-fold extension of the aPTT is determined.
# [1] = human factor XIa from Kordia, substrate Boc-Glu(OBzl)-Ala-Arg-AMC, 30 min at 22° C., read-out: IC50 (FXIa inhibition)
Structure (SMILES),IC50 (human factor XIa; [1]) [nM],aPTT (concentration of test substance which brings about a 1.5-fold extension of the aPTT) (human and animal plasma) [µmol/L],IC50 (human factor XIa) [nM]
"Cc1cc(C(=O)N[C@H]2CC[C@H](N3CCOCC3)CC2)ncc1-c1ccc(C[C@H](NC(=O)[C@H]2CC[C@H](CN)CC2)C(=O)Nc2ccc(-c3nnn[nH]3)cc2)cc1 [Example 13, N-alpha-{[trans-4-(Aminomethyl)cyclohexyl]carbonyl}-4-(4-methyl-6-{[trans-4-(morpholin-4-yl)cyclohexyl]carbamoyl}pyridin-3-yl)-N-[4-(1H-tetrazol-5-yl)phenyl]-L-phenylalaninamide hydrochloride]",0.9,0.08,–
"Cc1nc(C(=O)N[C@H]2CCNC2)ccc1-c1ccc(C[C@H](NC(=O)[C@H]2CC[C@H](CN)CC2)C(=O)Nc2ccc3[nH]c(=O)[nH]c3c2)cc1 [Example 14, N-alpha-{[trans-4-(Aminomethyl)cyclohexyl]carbonyl}-4-{2-methyl-6-[(3S)-pyrrolidin-3-ylcarbamoyl]pyridin-3-yl}-N-(2-oxo-2,3-dihydro-1H-benzimidazol-5-yl)-L-phenylalaninamide hydrochloride]",30,0.08,–
"Cc1nc(C(=O)N[C@H]2CCNC2)ccc1-c1ccc(C[C@H](NC(=O)[C@H]2CC[C@H](CN)CC2)C(=O)Nc2ccc(-c3nn[nH]n3)cc2)cc1 [Example 15, N-alpha-{[trans-4-(Aminomethyl)cyclohexyl]carbonyl}-4-{2-methyl-6-[(3S)-pyrrolidin-3-ylcarbamoyl]pyridin-3-yl}-N-[4-(2H-tetrazol-5-yl)phenyl]-L-phenylalaninamide hydrochloride]",3.2,0.1,–
"Cc1nc(C(=O)NC2C3CNCC32)ccc1-c1ccc(C[C@H](NC(=O)[C@H]2CC[C@H](CN)CC2)C(=O)Nc2ccc(-c3nn[nH]n3)cc2)cc1 (stereo partly drawn) [Example 16, N-alpha-{[trans-4-(Aminomethyl)cyclohexyl]carbonyl}-4-[6-(3-azabicyclo[3.1.0]hex-6-ylcarbamoyl)-2-methylpyridin-3-yl]-N-[4-(2H-tetrazol-5-yl)phenyl]-L-phenylalaninamide hydrochloride]",8.1,0.11,–
"Cc1nc(C(=O)N[C@@H]2CCNC2)ccc1-c1ccc(C[C@H](NC(=O)[C@H]2CC[C@H](CN)CC2)C(=O)Nc2ccc(-c3nn[nH]n3)cc2)cc1 [Example 17, N-alpha-{[trans-4-(Aminomethyl)cyclohexyl]carbonyl}-4-{2-methyl-6-[(3R)-pyrrolidin-3-ylcarbamoyl]pyridin-3-yl}-N-[4-(2H-tetrazol-5-yl)phenyl]-L-phenylalaninamide hydrochloride]",5,0.12,–
"Cc1nc(C(=O)N[C@@H]2CCN[C@H](C)C2)ccc1-c1ccc(C[C@H](NC(=O)[C@H]2CC[C@H](CN)CC2)C(=O)Nc2ccc(-c3nn[nH]n3)cc2)cc1 [Example 18, N-alpha-{[trans-4-(Aminomethyl)cyclohexyl]carbonyl}-4-(2-methyl-6-{[(2R,4R)-2-methylpiperidin-4-yl]carbamoyl}pyridin-3-yl)-N-[4-(2H-tetrazol-5-yl)phenyl]-L-phenylalaninamide hydrochloride]",–,0.12,4.5
"Cc1nc(C(=O)N[C@@H]2CCN(C)C2)ccc1-c1ccc(C[C@H](NC(=O)[C@H]2CC[C@H](CN)CC2)C(=O)Nc2ccc(-c3nn[nH]n3)cc2)cc1 [Example 19, N-alpha-{[trans-4-(Aminomethyl)cyclohexyl]carbonyl}-4-(2-methyl-6-{[(3R)-1-methylpyrrolidin-3-yl]carbamoyl}pyridin-3-yl)-N-[4-(2H-tetrazol-5-yl)phenyl]-L-phenylalaninamide hydrochloride]",4.5,0.12,–
